Data on eleven molecules can be found in patent publication US20250295642A1, “FLUOROQUINOXALINONE DERIVATIVE FOR SELECTIVELY INHIBITING PARP1” (MEDSHINE DISCOVERY INC., priority 2022, published 2025).

For series [1], the system named is MDA-MB-436 cells (BRCA1 mutation). Put plainly: Anti-proliferation assay on MDA-MB-436 cells (BRCA1 mutation). Particulars: Homo sapiens, MDA-MB-436, 168 h; incubated for 7 days, chemiluminescent cell viability; read-out: IC50, proliferation inhibition on MDA-MB-436 cells (BRCA1 mutation). The format is cell-based. Here is the method:
MDA-MB-436 cells (BRCA1 mutation) were seeded in black 96-well plates with clear bottoms. Each well contained 135 μL of cell suspension with 3,500 MDA-MB-436 cells (BRCA1 mutation). The cell plate was incubated overnight in a CO2 incubator. A 400× stock solution of the test compound was prepared. […] 78 μL of medium was added to an intermediate plate. Subsequently, 2 μL of the serially diluted compound per well was transferred to the corresponding wells of the intermediate plate. 2 μL of DMSO was added to the vehicle control and blank control. After mixing well, 15 μL of the mixture per well was then transferred to the cell plate. […] The cell plate was incubated for 7 days in a CO2 incubator. The cell plate was removed and equilibrated to room temperature for 30 minutes. 75 μL of chemiluminescent cell viability assay reagent was added to each well. The cell plate was shaken on an orbital shaker for 3 minutes to induce cell lysis, followed by 10 minutes of incubation at room temperature to stabilize the luminescent signal.

A short description of series [2]: In vitro liver microsomal stability, human liver microsomes.
Description: (§1) The concentration of the compound in the samples was determined by LC-MS/MS.
(§2) Experimental process: The incubation was performed using 96-well incubation plates, with individual plates labeled as T0, T5, T15, T30, T45, T60, Blank60, and NCF60. The reaction time points corresponding to the incubation plates were set at 0, 5, 15, 30, 45, and 60 minutes. In the Blank60 plate, no test compound or control compound was added, and the sample was collected after 60 minutes of incubation. In the NCF60 plate, potassium phosphate buffer was used in place of the NADPH regeneration system and incubated for 60 minutes. All time point samples were taken from individual wells.
For the T0, T5, T15, T30, T45, T60, and NCF60 plates, 5 μL of either the test or control compound working solution and 100 μL of microsomal working solution (with a liver microsomal protein concentration of 0.5 mg/mL) were added. Only microsomal working solution was added to the Blank60 well. In the Blank60 plate, only the microsomal working solution was added. Then, the incubation plates, except for TO and NCF60, including Blank60, T5, T15, T30, T45, and T60, were pre-incubated in a 37° C. water bath for approximately 10 minutes.
For samples in the TO plate, 180 μL of stop solution (where the stop solution was a solution of acetonitrile and methanol (95:5, V/V) containing 100 ng/mL tolbutamide) was added before adding the NADPH regeneration system working solution.
50 μL of potassium phosphate buffer was added to each well of the NCF60 plate and incubated for 60 minutes.
After the pre-incubation of Blank60, T5, T15, T30, T45, and T60 incubation plates, 44 μL of NADPH regeneration system working solution was added to each sample well to initiate the reaction. Therefore, for sample wells containing either the test compound or the control compound working solutions, the final reaction concentration was 1 μM, with the concentration of liver microsomes at 0.5 mg/mL. The final concentrations of DMSO and acetonitrile in the reaction system were 0.01% (v/v) and 0.99% (v/v), respectively.
After incubation for an appropriate period (e.g., 5, 15, 30, 45, and 60 minutes), 180 μL of stop solution was added to each test compound and control compound sample well in the Blank60, T5, T15, T30, T45, T60, and NCF60 plates to stop the reaction.
All sample plates were shaken thoroughly and centrifuged for 10 minutes. A volume of 80 μL of the supernatant from each test compound was diluted to 240 L with a solution of acetonitrile (1:9, v/v) containing 0.1% formic acid for LC-MS/MS analysis.
Series [3] in a line: In vitro liver microsomal stability, mouse liver microsomes.
Description: as §1, §2
For the T0, T5, T15, T30, T45, T60, and NCF60 plates, 5 μL of either the test or control compound working solution and 100 μL of microsomal working solution (with a liver microsomal protein concentration of 0.5 mg/mL) were added. Only microsomal working solution was added to the Blank60 well. In the Blank60 plate, only the microsomal working solution was added. Then, the incubation plates, except for TO and NCF60, including Blank60, T5, T15, T30, T45, and T60, were pre-incubated in a 37° C. water bath for approximately 10 minutes. […]
The target in series [4] is PARP1 (Homo sapiens (Human), UniProt P09874). Description: Binding activity between compound and PARP1, fluorescence polarization assay. Particulars: 8 nM PARP1, 5 nM fluorescent probe, 4 hours at room temperature. Here is the method:
The fluorescence polarization assay was performed in 96-well black-walled plates (Greiner). The reaction buffer consisted of 50 mM Tris (pH 8), 0.001% Triton X100, 10 mM MgCl2, and 150 mM NaCl. Both the fluorescent probe and His-Avi-tagged PARP1 protein were manufactured by WuXi AppTec (Shanghai). In a 100 μL reaction system, 8 nM PARP1, 5 nM fluorescent probe, and the compounds were added respectively. The compound concentration was prepared following the starting concentration and dilution gradient in Table 1. […] The test sample was incubated at room temperature for 4 hours, protected from light. Fluorescence polarization values were measured using an En Vision plate reader. The obtained fluorescence polarization values and compound concentrations were subjected to nonlinear fitting using GraphPad 8.0 software to determine the IC50 values.

Series [5] deals with PARP2 (Homo sapiens (Human), UniProt Q9UGN5). Description: Binding activity between compound and PARP2, fluorescence polarization assay. Particulars: 3 nM PARP2, 5 nM fluorescent probe, 4 hours at room temperature. Here is the method:
The fluorescence polarization assay was performed in 96-well black-walled plates (Greiner). The reaction buffer consisted of 50 mM Tris (pH 8), 0.001% Triton X100, 10 mM MgCl2, and 150 mM NaCl. Both the fluorescent probe and His-Avi-tagged PARP2 protein were manufactured by WuXi AppTec (Shanghai). In a 100 μL reaction system, 3 nM PARP2, 5 nM fluorescent probe, and the compounds were added respectively. The compound concentration was prepared following the starting concentration and dilution gradient in Table 2. The test sample was incubated at room temperature for 4 hours, protected from light. Fluorescence polarization values were measured using an EnVision plate reader. The obtained fluorescence polarization values and compound concentrations were subjected to nonlinear fitting using GraphPad 8.0 software to determine the IC50 values.

Series [6] concerns DLD1 (BRCA2 KO) cells. Description: Anti-proliferation assay on DLD1 cells (BRCA2 KO). In kind it is cell-based. To be noted: Homo sapiens, DLD-1, 168 h; incubated for 7 days, chemiluminescent cell viability. Here is the method:
DLD1 (BRCA2 KO) cells were seeded in white a 96-well plate with 80 μL of cell suspension per well, containing 1,000 DLD1 (BRCA2 KO) cells per well. The cell plate was incubated overnight in a CO2 incubator. The test compounds were 5-fold diluted with a multi-channel pipette to the 8th concentration, i.e., diluted from 2 mM to 0.0256 μM, and duplicate experiment was set. 78 μL of medium was added to an intermediate plate. Subsequently, 2 μL of the serially diluted compound per well was transferred to the corresponding wells of the intermediate plate and mixed well. 20 μL of the mixture per well was then transferred to the cell plate. The concentration of the compound transferred to the cell plate ranged from 10 μM to 0.128 nM. The cell plate was incubated for 7 days in a CO2 incubator. An additional cell plate was prepared to read the signal value on the day of compound addition, which served as the maximum value (Max in the following equation) for data analysis. The cell plate was added with 25 μL of chemiluminescent cell viability assay reagent per well and incubated at room temperature for 10 minutes to stabilize the luminescent signal. A multimode microplate reader was used for reading. […].

Each structure is given as a SMILES string.

Chain of PARP2 (Q9UGN5 whole entry): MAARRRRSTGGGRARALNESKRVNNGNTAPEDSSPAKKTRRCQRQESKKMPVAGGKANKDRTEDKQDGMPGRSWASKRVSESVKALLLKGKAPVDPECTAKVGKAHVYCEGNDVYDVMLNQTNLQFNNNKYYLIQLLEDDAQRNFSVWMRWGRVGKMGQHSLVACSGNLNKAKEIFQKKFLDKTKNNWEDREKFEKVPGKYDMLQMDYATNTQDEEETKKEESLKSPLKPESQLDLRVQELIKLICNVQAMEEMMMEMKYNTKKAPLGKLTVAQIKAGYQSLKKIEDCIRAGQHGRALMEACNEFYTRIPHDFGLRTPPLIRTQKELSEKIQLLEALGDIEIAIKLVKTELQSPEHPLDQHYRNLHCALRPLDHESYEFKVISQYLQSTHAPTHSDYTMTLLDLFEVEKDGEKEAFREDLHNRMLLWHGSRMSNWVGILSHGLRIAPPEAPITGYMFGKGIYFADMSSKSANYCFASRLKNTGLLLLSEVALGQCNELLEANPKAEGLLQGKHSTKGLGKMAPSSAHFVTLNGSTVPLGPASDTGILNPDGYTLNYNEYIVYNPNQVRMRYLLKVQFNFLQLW
Chain of PARP1 (P09874 whole entry): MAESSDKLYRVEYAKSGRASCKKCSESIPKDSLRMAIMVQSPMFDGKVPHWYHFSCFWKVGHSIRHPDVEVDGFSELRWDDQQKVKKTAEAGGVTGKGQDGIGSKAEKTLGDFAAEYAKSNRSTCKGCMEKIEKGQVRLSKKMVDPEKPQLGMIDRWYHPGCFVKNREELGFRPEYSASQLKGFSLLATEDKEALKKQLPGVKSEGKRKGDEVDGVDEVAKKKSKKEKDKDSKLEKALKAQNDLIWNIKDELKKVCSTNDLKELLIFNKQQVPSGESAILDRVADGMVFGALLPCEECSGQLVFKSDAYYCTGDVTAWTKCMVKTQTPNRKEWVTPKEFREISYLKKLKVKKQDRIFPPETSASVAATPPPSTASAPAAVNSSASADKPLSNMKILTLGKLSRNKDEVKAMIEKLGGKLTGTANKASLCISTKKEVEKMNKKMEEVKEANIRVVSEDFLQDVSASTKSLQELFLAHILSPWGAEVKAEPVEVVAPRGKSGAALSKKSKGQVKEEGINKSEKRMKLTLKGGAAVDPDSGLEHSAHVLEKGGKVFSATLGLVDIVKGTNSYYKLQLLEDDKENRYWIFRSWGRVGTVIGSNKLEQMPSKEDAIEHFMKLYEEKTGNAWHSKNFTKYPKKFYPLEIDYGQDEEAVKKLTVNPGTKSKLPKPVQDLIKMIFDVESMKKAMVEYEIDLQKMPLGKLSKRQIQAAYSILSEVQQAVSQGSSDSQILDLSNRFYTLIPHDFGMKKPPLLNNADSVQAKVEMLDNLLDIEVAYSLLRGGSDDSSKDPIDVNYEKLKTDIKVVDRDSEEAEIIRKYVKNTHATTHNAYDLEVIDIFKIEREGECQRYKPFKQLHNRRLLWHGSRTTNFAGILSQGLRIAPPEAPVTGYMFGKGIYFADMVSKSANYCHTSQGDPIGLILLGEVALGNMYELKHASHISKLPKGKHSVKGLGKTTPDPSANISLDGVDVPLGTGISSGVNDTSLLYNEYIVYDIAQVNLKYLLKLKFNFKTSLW

Take `CNC(=O)c1ccc(C2=CCN(Cc3ccc4c([nH]c(=O)c5cccnc54)c3F)CC2)c(F)n1` [Compound 27]: the IC50 in series [1] stood at 0.69 nM. In series [2], this molecule displayed a CLint scaled at 1 μM of 9.5 mL/min/kg and a half-life at 1 μM of 2.2 h.
Turning to `CNC(=O)c1ccc(C2=CCN(Cc3ccc4c([nH]c(=O)c5cccn54)c3F)CC2)c(F)n1` [Compound 28], in series [1], the IC50 worked out at 0.37 nM.
For the molecule `[2H]C([2H])([2H])NC(=O)c1ccc(N2CCN(Cc3ccc4c([nH]c(=O)c5cccnc54)c3F)CC2)c(F)n1` [Compound 29], the IC50 in series [1] stood at 1.14 nM. Moreover, the CLint scaled at 1 μM in series [3] was less than 38 mL/min/kg.
As to `[2H]C([2H])([2H])NC(=O)c1ccc(C2=CCN(Cc3ccc4c([nH]c(=O)c5cccnc54)c3F)CC2)c(F)n1` [Compound 31], the IC50 was 0.75 nM in series [1], 4.7 nM in series [4] and more than 20000 nM in series [5]. Besides, the CLint scaled at 1 μM in series [2] was less than 8.6 mL/min/kg. In addition, the half-life at 1 μM in series [2] was more than 2.42 h.
For the molecule `[2H]C([2H])(c1ccc2c([nH]c(=O)c3cccnc32)c1F)N1CCN(c2ccc(C(=O)NC)nc2F)CC1` [Compound 44], the IC50 in series [1] came to 0.65 nM.
In the case of `[2H]C([2H])(c1ccc2c([nH]c(=O)c3cccnc32)c1F)N1CCN(c2ccc(C(=O)NC)nc2Cl)CC1` [Compound 45], the IC50 in series [1] was determined as 0.27 nM.
In the case of `CNC(=O)c1ccc(N2CCN(Cc3ccc4c([nH]c(=O)c5cc(F)cnc54)c3F)CC2)c(Cl)n1` [Compound 50], the IC50 is 0.41 nM in series [1], 7.9 nM in series [4] and more than 20000 nM in series [5].
With `[2H]C([2H])([2H])NC(=O)c1ccc(N2CCN(Cc3ccc4c([nH]c(=O)c5cc(F)cnc54)c3F)CC2)c(Cl)n1` [Compound 52], the IC50 in series [4] worked out at 5.5 nM.
As for `CNC(=S)c1ccc(N2CCN(Cc3ccc4nc(C)c(=O)[nH]c4c3F)CC2)c(F)n1` [Trifluoroacetate of compound 5], in series [1], the IC50 stood at 1.2 nM.
For the molecule `CNC(=O)c1ccc2c(n1)CC[C@H]1CN(Cc3c(F)cc4nc(C)c(=O)[nH]c4c3F)CCN21` [Trifluoroacetate of compound 19], the IC50 in series [4] is 14 nM; in series [5] it was more than 50000 nM; in series [6], 24.2 nM.
As for `CNC(=O)c1ccc(N2CCN(Cc3cc(F)c4nc(C)c(=O)[nH]c4c3F)CC2)c(F)n1` [Trifluoroacetate of compound 22], the figures for the IC50 in series [1] and in series [6] were 5.73 nM and 4.43 nM, respectively.
